The record followed here is ChEMBL document CHEMBL1159145 (Bioorg Med Chem Lett, 1992).

For test [1], the target named is Substance-P receptor (Cavia porcellus, UniProt P30547). As to the kind of experiment: Binding affinity towards Tachykinin receptor 1 binding in guinea pig cerebral cortex membranes was determined using [3H]SP as the radioligand. In kind it is tissue-based, Membrane.
In test [2] the target is T1, Substance-P receptor (Rattus norvegicus, UniProt P14600). Nature of the test: Binding affinity towards Tachykinin receptor 1 in rat cerebral cortex membranes was determined by using 125 [I]-BHSP as radioligand. The test is classed as cell membranes, Membrane.
The next test concerns the target T2, Substance-K receptor (Mesocricetus auratus, UniProt P51144).
T2 sequence (P51144 whole entry): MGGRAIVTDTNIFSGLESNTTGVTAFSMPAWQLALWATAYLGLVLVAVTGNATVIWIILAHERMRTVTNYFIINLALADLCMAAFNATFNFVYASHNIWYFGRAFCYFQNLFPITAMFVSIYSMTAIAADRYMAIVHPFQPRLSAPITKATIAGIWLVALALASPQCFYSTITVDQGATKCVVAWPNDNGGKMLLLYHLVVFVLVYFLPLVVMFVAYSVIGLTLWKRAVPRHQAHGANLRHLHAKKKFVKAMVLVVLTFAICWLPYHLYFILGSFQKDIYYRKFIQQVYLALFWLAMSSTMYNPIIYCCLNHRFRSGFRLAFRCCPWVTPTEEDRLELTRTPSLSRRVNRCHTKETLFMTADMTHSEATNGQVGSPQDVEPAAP
As to the kind of experiment: Ability to displace the binding of [125I]iodohistidyl-NKA to Tachykinin receptor 2 in hamster urinary bladder membranes was determined. The test is classed as cell membranes, Membrane.

A further test concerns the target T3, Neuromedin-K receptor (Rattus norvegicus, UniProt P16177).
T3 sequence (P16177 whole entry): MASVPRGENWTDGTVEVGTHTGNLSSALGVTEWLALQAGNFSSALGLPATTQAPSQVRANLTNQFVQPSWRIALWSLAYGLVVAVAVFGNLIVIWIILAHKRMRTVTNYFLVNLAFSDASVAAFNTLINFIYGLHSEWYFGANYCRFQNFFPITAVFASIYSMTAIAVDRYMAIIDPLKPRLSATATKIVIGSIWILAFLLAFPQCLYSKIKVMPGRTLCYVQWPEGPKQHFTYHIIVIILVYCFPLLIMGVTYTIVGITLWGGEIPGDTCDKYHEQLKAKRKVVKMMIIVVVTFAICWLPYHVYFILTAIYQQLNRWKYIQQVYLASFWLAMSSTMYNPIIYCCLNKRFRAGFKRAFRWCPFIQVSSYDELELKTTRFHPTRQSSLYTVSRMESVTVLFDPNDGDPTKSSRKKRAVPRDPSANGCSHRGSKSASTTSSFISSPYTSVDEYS
Nature of the test: Ability to displace the binding of [3H]-Senktide to Tachykinin receptor 3 in rat cerebral cortex membranes was determined. The test is classed as cell membranes, Membrane.

Test [3] addresses T1, Substance-P receptor. As to the kind of experiment: The binding affinity towards NK1 receptor in rat cerebral cortex membranes was determined by using 125 [I]-BHSP as radioligand. The test is classed as cell membranes, Membrane.

The structures appear in SMILES notation.

T1 sequence (P14600 whole entry): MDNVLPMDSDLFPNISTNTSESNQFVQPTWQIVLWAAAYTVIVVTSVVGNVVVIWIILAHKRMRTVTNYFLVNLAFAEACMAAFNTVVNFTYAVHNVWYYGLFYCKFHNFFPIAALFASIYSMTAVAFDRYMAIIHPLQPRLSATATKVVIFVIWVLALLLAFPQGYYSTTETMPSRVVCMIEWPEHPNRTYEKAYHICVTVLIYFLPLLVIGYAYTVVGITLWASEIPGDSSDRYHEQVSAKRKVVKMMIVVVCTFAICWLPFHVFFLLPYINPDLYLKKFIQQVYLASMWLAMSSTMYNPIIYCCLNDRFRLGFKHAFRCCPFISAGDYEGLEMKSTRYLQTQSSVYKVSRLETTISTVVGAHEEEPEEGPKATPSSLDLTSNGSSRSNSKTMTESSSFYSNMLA
Sequence of Substance-P receptor (Cavia porcellus, UniProt P30547) (P30547 whole entry): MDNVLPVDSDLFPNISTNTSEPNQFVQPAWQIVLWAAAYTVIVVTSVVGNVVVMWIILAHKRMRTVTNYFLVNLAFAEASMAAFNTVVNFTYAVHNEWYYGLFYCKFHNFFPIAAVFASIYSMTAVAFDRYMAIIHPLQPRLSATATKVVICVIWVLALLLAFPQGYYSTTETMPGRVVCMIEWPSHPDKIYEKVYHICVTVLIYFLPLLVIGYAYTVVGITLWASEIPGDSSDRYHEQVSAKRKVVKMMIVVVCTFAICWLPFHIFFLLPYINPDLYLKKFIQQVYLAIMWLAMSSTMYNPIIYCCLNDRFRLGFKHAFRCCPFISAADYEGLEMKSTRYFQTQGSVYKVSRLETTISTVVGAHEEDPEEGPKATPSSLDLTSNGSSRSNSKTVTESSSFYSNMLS

As usually defined, the IC50 is the point on the concentration scale where inhibition reaches its midpoint. Higher therefore signals a need for much substance. Take `COc1ccccc1CN[C@@H]1C2CCN(CC2)[C@@H]1Cc1ccccc1`: the IC50 was 1.51 µM on Substance-P receptor [1], more than 1 µM on Substance-P receptor [2], not below 100 µM at Substance-K receptor and not below 100 µM on Neuromedin-K receptor.

With `N[C@@H]1C2CCN(CC2)[C@@H]1C(c1ccccc1)c1ccccc1`, the IC50 on Substance-P receptor [1] is more than 10 µM; at Substance-P receptor [2], more than 10 µM; on Substance-K receptor, not below 100 µM; on Neuromedin-K receptor, not below 100 µM.

As for `Fc1ccccc1CN[C@@H]1C2CCN(CC2)[C@@H]1C(c1ccccc1)c1ccccc1`, the IC50 on Substance-P receptor [1] is 0.037 µM; at Substance-P receptor [2], 0.99 µM; on Substance-K receptor it was not below 100 µM; on Neuromedin-K receptor, not below 100 µM.

Consider `Clc1ccccc1CCN[C@@H]1C2CCN(CC2)[C@@H]1C(c1ccccc1)c1ccccc1`, for which the IC50 on Substance-P receptor [1] was 0.16 µM; at Substance-P receptor [2], 7.2 µM; at Substance-K receptor, not below 100 µM; at Neuromedin-K receptor, not below 100 µM.

As to `FC(F)(F)c1ccccc1CN[C@@H]1C2CCN(CC2)[C@@H]1C(c1ccccc1)c1ccccc1`, the IC50 at Substance-P receptor [1] is 0.033 µM; at Substance-P receptor [2], 0.74 µM; on Substance-K receptor, not below 100 µM; on Neuromedin-K receptor, not below 100 µM.

Consider `COc1ccccc1CN[C@@H]1C2CCN(CC2)[C@@H]1C(c1ccccc1)c1ccccc1`, for which the IC50 at Substance-K receptor and at Neuromedin-K receptor was not below 100 µM throughout.

For `Clc1ccccc1CCCN[C@@H]1C2CCN(CC2)[C@@H]1C(c1ccccc1)c1ccccc1`, the IC50 was 1.1 µM on Substance-P receptor [1], more than 10 µM at Substance-P receptor [3], not below 100 µM at Substance-K receptor and not below 100 µM at Neuromedin-K receptor.

For the compound `Cc1ccccc1CN[C@@H]1C2CCN(CC2)[C@@H]1C(c1ccccc1)c1ccccc1`, the IC50 on Substance-P receptor [1] was 0.227 µM; on Substance-P receptor [2] it was 0.7 µM; on Substance-K receptor, not below 100 µM; at Neuromedin-K receptor, not below 100 µM.

On to `Clc1ccccc1CN[C@@H]1C2CCN(CC2)[C@@H]1C(c1ccccc1)c1ccccc1`, for which the IC50 on Substance-P receptor [1] was 0.0085 µM; on Substance-P receptor [2], 0.11 µM; on Substance-K receptor it was not below 100 µM; at Neuromedin-K receptor it was not below 100 µM.

Take `c1ccc(CN[C@@H]2C3CCN(CC3)[C@@H]2C(c2ccccc2)c2ccccc2)cc1`: the IC50 on Substance-P receptor [1] was 0.052 µM; on Substance-P receptor [2] it was 2 µM; at Substance-K receptor, not below 100 µM; on Neuromedin-K receptor, not below 100 µM.

With `O=C(N[C@@H]1C2CCN(CC2)[C@@H]1C(c1ccccc1)c1ccccc1)c1ccccc1Cl`, the IC50 on Substance-P receptor [1] is more than 10 µM; at Substance-P receptor [2], more than 10 µM; at Substance-K receptor, not below 100 µM; on Neuromedin-K receptor, not below 100 µM.

As for `COc1ccccc1CN[C@H]1C2CCN(CC2)[C@@H]1C(c1ccccc1)c1ccccc1`, the IC50 on Substance-K receptor and on Neuromedin-K receptor was not below 100 µM in each case.

With `COc1ccccc1CO[C@@H]1C2CCN(CC2)[C@@H]1C(c1ccccc1)c1ccccc1`, the IC50 on Substance-P receptor [1] is 0.15 µM; at Substance-P receptor [2] it was approximately 10 µM; on Substance-K receptor, not below 100 µM; at Neuromedin-K receptor it was not below 100 µM.

With `CSCC[C@H](NC(=O)[C@H](CC(C)C)NC(=O)CNC(=O)[C@@H](NC(=O)[C@H](Cc1ccccc1)NC(=O)[C@H](CO)NC(=O)[C@H](CC(=O)O)NC(=O)[C@@H](NC(=O)[C@H](CCCCN)NC(=O)[C@@H](N)Cc1cnc[nH]1)[C@@H](C)O)C(C)C)C(N)=O` [NEUROKININ A], on Substance-P receptor [1], the IC50 was determined as 0.0035 µM.

As for `CSCC[C@H](NC(=O)[C@H](CC(C)C)NC(=O)CNC(=O)[C@@H](NC(=O)[C@H](Cc1ccccc1)NC(=O)[C@H](Cc1ccccc1)NC(=O)[C@H](CC(=O)O)NC(=O)[C@H](Cc1c[nH]cn1)NC(=O)[C@H](CCSC)NC(=O)[C@@H](N)CC(=O)O)C(C)C)C(N)=O` [NEUROKININ B], the IC50 on Substance-P receptor [1] is 0.013 µM; on Substance-P receptor [2] it was 0.069 µM.
